# According to patent US20100129290A1, “SMART CONTRAST AGENT AND DETECTION METHOD FOR DETECTING TRANSITION METAL IONS” (I.S.T. corporation, priority 2008, published 2010):
# Where no end group is shown, it is not given here. The star is where a group is joined. dabcyl = dabcyl quencher on the Lys side chain, CN(C)c1ccc(/N=N/c2ccc(C(=O)*)cc2)cc1; K(FAM) = lysine with FAM attached to its side chain
# Legend:
# [1] = 1H longitudinal relaxivity (NMRD); assay type: physicochemical; settings: salt only, 50 mM NEM, pH=7.0, 20 MHz
# Method: Smart contrast agents with larger relaxivity values imply lower MRI detection limits for the target species and are advantageous over contrast agents with lower relaxivity values.
# The incubation was conducted in the dark, at room temperature, and lasted for 3 hours. The longitudinal relaxivity was measured at field strengths between 0.01 MHz to 20 MHz. […] The underlining mechanisms responsible for the observed behavior have not been well characterized to date, but likely contain contributions from several factors including gadolinium-copper ion exchange, alterations in peptide solubility, peptide structural rearrangements, remaining synthesis impurities, and buffer interactions with both copper and gadolinium ions.
# Aβ accumulation = settings: transgenic mice; cited from earlier work
# [2] = test system: endogenous β-amyloid peptides; settings: cerebrospinal fluid; read-out: EC50 for conversion of endogenous β-amyloid peptides into insoluble aggregates; cited from earlier work
# [3] = Fluorescence (FRET) titration with calcium(II) ions; assay type: binding
# [4] = Fluorescence (FRET) titration with copper(II) ions; assay type: binding; settings: for effect of the mutation on copper binding: mutant versus P1P
# [5] = Fluorescence (FRET) titration with magnesium(II) ions; assay type: binding
# [6] = Fluorescence (FRET) titration with zinc(II) ions; assay type: binding; settings: for effect of the mutation on zinc binding: mutant versus P1P
# [7] = Fluorescence (FRET) titration with gadolinium(III) ions; assay type: binding; settings: for Gd^+3 binding, effect on FRET activity: 10 μM peptide, pH dependence
Compound,binding with Ca^+2 [3],effect of the mutation on copper binding [4],binding with Mg^+2 [5],effect of the mutation on zinc binding [6],"Gd^+3 binding, effect on FRET activity [7]",other results
O=S(=O)([O-])[O-].[Cu+2] [CuSO4],,,,,,relaxivity [1]: 0.4 mM⁻¹ s⁻¹
[Cl][Gd]([Cl])[Cl] [GdCl3],,,,,,relaxivity [1]: 5.1 mM⁻¹ s⁻¹
Oc1c(I)cc(Cl)c2cccnc12 [clioquinol],,,,,,inhibition of Aβ accumulation (Aβ accumulation): significant inhibition of Aβ accumulation
[Zn+2] [zinc ions],,,,,,EC50 [2]: 120 to 140 µM
"K(FAM)PAGGGWGQK(dabcyl) ({K(FAM)}-PAGGGWGQK(dabcyl)) [P17, mutant version of P1P, histidine to alanine]",No binding,most critical,No binding,most critical,marked increase in Gd^+3 binding with increasing pH,
"K(FAM)PHGGGAGQK(dabcyl) ({K(FAM)}-PHGGGAGQK(dabcyl)) [P16, mutant version of P1P, tryptophan to alanine]",No binding,significant effect,No binding,significant effect,marked increase in Gd^+3 binding with increasing pH,
"K(FAM)PHGGGWGAK(dabcyl) ({K(FAM)}-PHGGGWGAK(dabcyl)) [P18, mutant version of P1P, glutamine to alanine]",No binding,"either had no effect, or even increased the peptide binding strength",No binding,"either had no effect, or even increased the peptide binding strength",marked increase in Gd^+3 binding with increasing pH,effect of the mutation on binding affinity for copper ([4]; pH ≦7): little effect; effect of the mutation on binding activity with copper ([4]; pH=7.6): increase the binding activity; effect of the mutation on binding affinity for zinc ([6]; pH ≦7): little effect; effect of the mutation on binding activity with zinc ([6]; pH=7.6): increase the binding activity; effect of the mutation on affinity of Gd^+3 ions ([7]; versus base P1P peptide): reduce the affinity
